Data taken from PubChem BioAssay AID248 (DTP/NCI, 2004).
“And” between values parts separate entries of the source, which are not always exact repeats. Equal entries are not always repeated. Inconclusive results and toxic doses are left out. No stated cut-off is given here; in the data, active means T/C of 150% or more; inactive means T/C below 125%.

System: L1210 leukemia ip in BDF1 mice, survival T/C
Assay: NCI In Vivo Anticancer Drug Screen. Data for tumor model L1210 Leukemia (intraperitoneal) in B6D2F1 (BDF1) mice
Settings: endpoint: mean survival time, higher = longer survival
Outline: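 Mice bearing the transplanted tumor received compound or vehicle. Survival of the treated group was divided by that of the vehicle-treated control group to give the ratio.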

[1] = dose: 100.0 mg/kg/injection, schedule: Q01DX009 (ip), vehicle: saline
[2] = dose: 100.0 mg/kg/injection, schedule: Q04DX003 (ip), vehicle: saline with Tween-80
[3] = dose: 100.0 mg/kg/injection, schedule: Q04DX003 (ip), vehicle: saline
[4] = dose: 200.0 mg/kg/injection, schedule: Q01DX009 (ip), vehicle: saline
[5] = dose: 200.0 mg/kg/injection, schedule: Q04DX003 (ip), vehicle: saline with Tween-80
[6] = dose: 200.0 mg/kg/injection, schedule: Q04DX003 (ip), vehicle: saline
[7] = dose: 400.0 mg/kg/injection, schedule: Q01DX009 (ip), vehicle: saline
[8] = dose: 400.0 mg/kg/injection, schedule: Q04DX003 (ip), vehicle: saline with Tween-80
[9] = dose: 400.0 mg/kg/injection, schedule: Q04DX003 (ip), vehicle: saline
[10] = dose: 100.0 mg/kg/injection, schedule: Q01DX009 (ip), vehicle: Klucel (hydroxypropylcellulose) (HPC)
[11] = dose: 200.0 mg/kg/injection, schedule: Q01DX009 (ip), vehicle: Klucel (hydroxypropylcellulose) (HPC)
[12] = dose: 400.0 mg/kg/injection, schedule: Q01DX009 (ip), vehicle: Klucel (hydroxypropylcellulose) (HPC)
[13] = dose: 50.0 mg/kg/injection, schedule: Q04DX003 (ip), vehicle: saline
[14] = dose: 100.0 mg/kg/injection, schedule: Q01DX001 (ip), vehicle: saline
[15] = dose: 200.0 mg/kg/injection, schedule: Q01DX001 (ip), vehicle: saline
[16] = dose: 400.0 mg/kg/injection, schedule: Q01DX001 (ip), vehicle: saline
[17] = dose: 25.0 mg/kg/injection, schedule: Q04DX003 (ip), vehicle: saline

Measured: T/C

CCOC(=O)c1cc(C)nnc1C(=O)OCC
inactive: dose: 100.0 mg/kg/injection, schedule: Q01DX009 (ip), vehicle: saline with Tween-80 104 % of control | [1] 100 % of control | [2] 97 % of control | [3] 107 % of control | dose: 200.0 mg/kg/injection, schedule: Q01DX009 (ip), vehicle: saline with Tween-80 104 % of control | [4] 103 % of control | [5] 106 % of control | [6] 112 % of control | dose: 400.0 mg/kg/injection, schedule: Q01DX009 (ip), vehicle: saline with Tween-80 103 % of control | [7] 101 % of control | [8] 101 % of control | [9] 98 % of control

O=C1C(I)=CC(=C(c2cc(I)c(O)c(I)c2)c2ccccc2C(=O)O)C=C1I
inactive: [10] 94 % of control | dose: 100.0 mg/kg/injection, schedule: Q04DX003 (ip), vehicle: Klucel (hydroxypropylcellulose) (HPC) 98 % of control | [11] 89 % of control | dose: 200.0 mg/kg/injection, schedule: Q04DX003 (ip), vehicle: Klucel (hydroxypropylcellulose) (HPC) 98 % of control | [12] 98 % of control | dose: 400.0 mg/kg/injection, schedule: Q04DX003 (ip), vehicle: Klucel (hydroxypropylcellulose) (HPC) 98 % of control

O=C(O)/C=C\C(=O)Nc1ccccc1NC(=O)/C=C/C(=O)O
inactive: [1] 96 % of control | [4] 94 % of control | [7] 91 % of control

CCCCCOC(=O)CN(CC(=O)OCCCCC)c1ccc(C=O)cc1
inactive: [2] 103 % of control | [5] 100 % of control | [8] 92 % of control

O=C(NCCBr)OCc1ccccc1
inactive: [13] 98 % of control | [3] 98 % of control | [6] 101 % of control

OCC1OC(n2ccc3ccc(F)cc32)C(O)C1O (stereo not drawn)
inactive: dose: 60.0 mg/kg/injection, schedule: Q01DX001 (ip), vehicle: saline 97 % of control | dose: 120.0 mg/kg/injection, schedule: Q01DX001 (ip), vehicle: saline 108 % of control

CN(C)c1ccc(C=Nc2cc(Cl)ccc2O)cc1
inactive: [14] 107 % of control | [15] 100 % of control | [16] 100 % of control

CCN(CC)CCOc1cc(C)cc2ccccc12
inactive: dose: 12.5 mg/kg/injection, schedule: Q04DX003 (ip), vehicle: saline 87 % of control | [17] 98 % of control | [13] 101 % of control | [3] 104 % of control

CCN(CC)CCN1CC(=O)Nc2cc(Cl)ccc21
inactive: [17] 94 % of control | [13] 99 % of control | [3] 98 % of control and 87 % of control

C/C(=N/N(C)C)c1cccc(N)c1
inactive: [14] 98 % of control | [15] 93 % of control | [16] 101 % of control

CN(N=O)C(=O)NC1C(O)C(CO)OC1n1ccc(=O)[nH]c1=O (stereo not drawn)
inactive: [3] 98 % of control | [6] 96 % of control | [9] 102 % of control

NCc1ccccc1F
inactive: [1] 100 % of control | [3] 107 % of control | [4] 90 % of control | [6] 100 % of control | [9] 102 % of control

CCCCC1(C)CCC(=O)O1 (stereo not drawn)
inactive: dose: 66.0 mg/kg/injection, schedule: Q01DX001 (ip), vehicle: Klucel (hydroxypropylcellulose) (HPC) 101 % of control | dose: 100.0 mg/kg/injection, schedule: Q01DX001 (ip), vehicle: Klucel (hydroxypropylcellulose) (HPC) 95 % of control | dose: 150.0 mg/kg/injection, schedule: Q01DX001 (ip), vehicle: Klucel (hydroxypropylcellulose) (HPC) 96 % of control | [15] 113 % of control | [16] 91 % of control

CCCOC(=O)C(OC(=O)c1ccccc1)C(OC(=O)c1ccccc1)C(=O)OCCC (stereo not drawn)
inactive: [14] 104 % of control | [15] 96 % of control | [16] 94 % of control

O=C(c1ccco1)C1Cc2ccccc2C1=O (stereo not drawn)
inactive: [10] 95 % of control | dose: 100.0 mg/kg/injection, schedule: Q04DX003 (ip), vehicle: alcohol 109 % of control | [11] 94 % of control | dose: 200.0 mg/kg/injection, schedule: Q04DX003 (ip), vehicle: alcohol 104 % of control | [12] 97 % of control | dose: 400.0 mg/kg/injection, schedule: Q04DX003 (ip), vehicle: alcohol 103 % of control

CC(=O)C12OC1(C)CC1C3CC=C4CC(O)CCC4(C)C3CCC12C (stereo not drawn)
inactive: dose: 100.0 mg/kg/injection, schedule: Q01DX009 (sc), vehicle: steriod suspending solution 100 % of control | dose: 100.0 mg/kg/injection, schedule: Q04DX003 (sc), vehicle: steriod suspending solution 108 % of control | dose: 200.0 mg/kg/injection, schedule: Q01DX009 (sc), vehicle: steriod suspending solution 109 % of control | dose: 200.0 mg/kg/injection, schedule: Q04DX003 (sc), vehicle: steriod suspending solution 122 % of control | dose: 400.0 mg/kg/injection, schedule: Q01DX009 (sc), vehicle: steriod suspending solution 98 % of control | dose: 400.0 mg/kg/injection, schedule: Q04DX003 (sc), vehicle: steriod suspending solution 103 % of control

Nc1ccc(N)cc1
inactive: dose: 1.5 mg/kg/injection, schedule: Q01DX009 (ip), vehicle: DMSO 94 % of control | dose: 3.0 mg/kg/injection, schedule: Q01DX009 (ip), vehicle: DMSO 92 % of control | dose: 5.0 mg/kg/injection, schedule: Q01DX001 (ip), vehicle: saline 98 % of control | dose: 5.0 mg/kg/injection, schedule: Q01DX009 (ip), vehicle: saline with Tween-80 100 % of control | dose: 5.0 mg/kg/injection, schedule: Q04DX003 (ip), vehicle: saline 103 % of control | dose: 6.0 mg/kg/injection, schedule: Q01DX009 (ip), vehicle: DMSO 92 % of control | dose: 6.25 mg/kg/injection, schedule: Q01DX009 (ip), vehicle: DMSO 94 % of control | dose: 10.0 mg/kg/injection, schedule: Q01DX001 (ip), vehicle: saline 102 % of control | dose: 10.0 mg/kg/injection, schedule: Q01DX009 (ip), vehicle: saline with Tween-80 96 % of control | dose: 10.0 mg/kg/injection, schedule: Q04DX003 (ip), vehicle: saline 98 % of control | dose: 12.5 mg/kg/injection, schedule: Q01DX009 (ip), vehicle: DMSO 89 % of control | dose: 20.0 mg/kg/injection, schedule: Q01DX001 (ip), vehicle: saline 106 % of control | dose: 20.0 mg/kg/injection, schedule: Q01DX009 (ip), vehicle: saline with Tween-80 99 % of control | dose: 20.0 mg/kg/injection, schedule: Q04DX003 (ip), vehicle: saline 97 % of control | dose: 40.0 mg/kg/injection, schedule: Q01DX001 (ip), vehicle: saline 106 % of control | dose: 100.0 mg/kg/injection, schedule: Q04DX003 (ip), vehicle: DMSO 91 % of control | dose: 200.0 mg/kg/injection, schedule: Q04DX003 (ip), vehicle: DMSO 88 % of control

CC(=O)Nc1ccc(Br)cc1[N+](=O)[O-]
inactive: dose: 100.0 mg/kg/injection, schedule: Q01DX009 (ip), vehicle: acetone 92 % of control | dose: 200.0 mg/kg/injection, schedule: Q01DX009 (ip), vehicle: acetone 106 % of control | dose: 400.0 mg/kg/injection, schedule: Q01DX009 (ip), vehicle: acetone 101 % of control

CC(C)CC(CC(C)C)NCCO
inactive: dose: 75.0 mg/kg/injection, schedule: Q01DX001 (ip), vehicle: acid diluted with saline 103 % of control

CCC[CH2][Sn]([Br])([CH2]CCC)[CH2]CCC
inactive: dose: 3.13 mg/kg/injection, schedule: Q01DX009 (ip), vehicle: carboxymethylcellulose (CMC) 93 % of control and 103 % of control | dose: 6.25 mg/kg/injection, schedule: Q01DX009 (ip), vehicle: carboxymethylcellulose (CMC) 103 % of control (2×) and 104 % of control | dose: 6.25 mg/kg/injection, schedule: Q04DX003 (ip), vehicle: carboxymethylcellulose (CMC) 96 % of control | dose: 12.5 mg/kg/injection, schedule: Q01DX009 (ip), vehicle: carboxymethylcellulose (CMC) 93 % of control and 101 % of control and 103 % of control | dose: 12.5 mg/kg/injection, schedule: Q04DX002 (ip), vehicle: carboxymethylcellulose (CMC) 92 % of control and 103 % of control | dose: 12.5 mg/kg/injection, schedule: Q04DX003 (ip), vehicle: carboxymethylcellulose (CMC) 107 % of control | dose: 25.0 mg/kg/injection, schedule: Q04DX002 (ip), vehicle: carboxymethylcellulose (CMC) 93 % of control and 98 % of control
